Experimental data taken from ChEMBL document CHEMBL1144364, “Synthesis and biological activity of the tea catechin metabolites, M4 and M6 and their methoxy-derivatives” (Bioorg Med Chem Lett, 2005).
The source made the active and inactive calls. No cut-off for these calls is given here.

Tests used:
HCT-116 [1] = assay: Percent inhibition of growth of human colon adenocarcinoma cells, HCT116 cells; format: functional
[2] = Percent inhibition of growth of an immortalized rat intestinal epithelial cell line, IEC-6 cell line; format: functional
INT-407 (Homo sapiens) [3] = assay: Percent inhibition of growth of an immortalized human intestinal epithelial cells, INT-407 cells
HT-29 [4] = assay: Percent inhibition of growth of human colon adenocarcinoma cells, HT-29 cells; format: functional
Mus musculus [5] = species: Mus musculus; assay: Evaluated to inhibit the release of arachidonic acid and the production of nitric oxide(NO) by lipopolysaccharide (LPS)-stimulated murine macrophages (RAW264.7); NE=No effect; format: functional, organism-based
[6] = Percent inhibition of growth of human esophageal squamous cell carcinoma cells, KYSE150 cells; format: functional
HT-29 [7] = assay: Percent inhibition of growth of human colon adenocarcinoma cells, HT-29 cells, at 50 uM concentration; NE=No effect; format: functional, cell-based
[8] = Percent inhibition of growth of human esophageal squamous cell carcinoma cells, KYSE150 cells, at 50 uM concentration (Range=20-40%); format: functional; conditions: KYSE-150
Mus musculus [9] = species: Mus musculus; assay: Evaluated to inhibit the release of arachidonic acid and the production of nitric oxide(NO) by lipopolysaccharide (LPS)-stimulated murine macrophages (RAW264.7); format: functional, organism-based
HT-29 [10] = assay: Inhibitory concentration against human colon adenocarcinoma cells, HT-29 cells (Range=15-73); format: functional, cell-based
[11] = Inhibitory concentration against human esophageal squamous cell carcinoma cells, KYSE150 cells (Range=15-73); format: functional
HCT-116 [12] = assay: Inhibitory concentration against human colon adenocarcinoma cells, HCT116 cells (Range=15-73); format: functional, cell-based
INT-407 (Homo sapiens) [13] = assay: Inhibitory concentration against an immortalized human intestinal epithelial cells, INT-407 cells (Range=15-73); conditions: epithelial cell
[14] = Inhibitory concentration against an immortalized rat intestinal epithelial cell line, IEC-6 cell line (Range=15-73); format: functional, cell-based

COc1cc(CC2CCC(=O)O2)cc(OC)c1OC (stereo not drawn)
Inhibition (HCT-116 [1]): <20%
Inhibition [2]: <20%
Inhibition (INT-407 (Homo sapiens) [3]): <20%
Inhibition (HT-29 [4]): <20%
IC50 (Mus musculus [5]): Not Active
Inhibition [6]: <20%

O=C1CCC(Cc2ccc(O)c(O)c2)O1 (stereo not drawn)
inhibition (HT-29 [7]): inactive
inhibition at 50 µM [8]: 40%

COc1ccc(CC2CCC(=O)O2)cc1OC (stereo not drawn)
inhibition (HT-29 [7]): inactive
inhibition at 50 µM [8]: 40%

O=C1CCC(Cc2cc(O)c(O)c(O)c2)O1 (stereo not drawn)
IC50 (Mus musculus [9]): 20 µM
IC50 (HT-29 [10]): 73 µM
IC50 [11]: 73 µM
IC50 (HCT-116 [12]): 73 µM
IC50 (INT-407 (Homo sapiens) [13]): 73 µM
IC50 [14]: 73 µM

COc1ccc(CC2CCC(=O)O2)cc1O (stereo not drawn)
inhibition (HT-29 [7]): inactive
inhibition at 50 µM [8]: 40%
